PubChem BioAssay (NCI)
Values joined by “and” are separate entries in the source; they are usually repeats but may differ in a detail not shown here. Equal entries are not always repeated.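 How tested: cells in 96-well plates exposed to compound for 48 hours at five concentrations. GI50 is the concentration that inhibits growth by half. TGI: total growth inhibition.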

How the values were obtained:
Test in all cases: DTP human tumour cell line panel, 48 h
DU-145 prostate = system: DU-145 prostate
HCT-15 colon = system: HCT-15 colon
HS 578T breast = system: HS 578T breast
IGROV1 ovarian = system: IGROV1 ovarian
KM12 colon = system: KM12 colon
MCF7 breast = system: MCF7 breast
MDA-MB-231 breast = system: MDA-MB-231 breast
NCI-H226 lung = system: NCI-H226 lung
SK-MEL-2 melanoma = system: SK-MEL-2 melanoma
SNB-75 CNS = system: SNB-75 CNS

Structure (SMILES)	GI50 (DU-145 prostate)	TGI (DU-145 prostate)	GI50 (HCT-15 colon)	TGI (HCT-15 colon)	GI50 (HS 578T breast)	TGI (HS 578T breast)	GI50 (IGROV1 ovarian)	TGI (IGROV1 ovarian)	GI50 (KM12 colon)	TGI (KM12 colon)	GI50 (MCF7 breast)	TGI (MCF7 breast)	GI50 (MDA-MB-231 breast)	TGI (MDA-MB-231 breast)	GI50 (NCI-H226 lung)	TGI (NCI-H226 lung)	GI50 (SK-MEL-2 melanoma)	TGI (SK-MEL-2 melanoma)	GI50 (SNB-75 CNS)	TGI (SNB-75 CNS)
N=C(N)c1ccc(-c2ccc(-c3ccco3)o2)cc1	6.25 µM	19 µM	2.58 µM	7.22 µM	4.82 µM	24.2 µM	4.38 µM	16.7 µM	3.16 µM	10.4 µM	2.08 µM	14.3 µM	2.75 µM	7.75 µM	14.4 µM	33.1 µM	2.41 µM	4.65 µM	10.7 µM	23.2 µM
COc1ccc(CNCCN2C(=O)c3ccc4c5c(ccc(c35)C2=O)C(=O)N(CCNCc2ccc(OC)cc2)C4=O)cc1	0.468 µM	1.7 µM	0.179 µM	0.432 µM	1.1 µM	4.25 µM	0.204 µM	0.67 µM	0.2 µM	0.623 µM	0.181 µM	0.533 µM	0.294 µM	1.13 µM	0.637 µM	2.28 µM	0.313 µM	1.14 µM	1.15 µM	2.48 µM
CC(C)=CCNc1ncnc2c1ncn2C1OC(COP(=O)(O)O)C(O)C1O (centres undefined)	1.35 µM	4.15 µM	2.72 µM	> 64.1 µM	2.67 µM	21.8 µM	11 µM	> 100 µM	20.1 µM	> 100 µM	1.72 µM	> 91.3 µM	1.85 µM	5.48 µM	4.7 µM	33.9 µM	16.3 µM	99.8 µM	2.06 µM	34.1 µM
CC(=O)NC1=NC(=O)/C(=C/c2ccc(Cl)cc2Cl)N1C		> 100 µM		> 100 µM		> 100 µM		> 100 µM		> 100 µM		> 100 µM		> 100 µM		82.5 µM		> 100 µM		> 100 µM
COc1ccc(C2CC(c3cccc(Nc4ccnc5cc(Cl)ccc45)c3)=NN2c2ccccc2)cc1 (centres undefined)	14 µM	> 100 µM	0.335 µM	14.7 µM	6.79 µM	73.2 µM	11.6 µM	> 100 µM	0.226 µM	19.6 µM	1.52 µM	27.4 µM	1.31 µM	29.2 µM	11.3 µM	63.8 µM	2.07 µM	10.4 µM	3.34 µM	49.1 µM
Cc1ccc(NC(=O)C(=O)C2C(=O)C3=C(CC2(C)C)NC2C=CC=CC2S3)c(C)c1 (centres undefined)		> 100 µM		> 100 µM		> 100 µM		> 100 µM		> 100 µM		> 100 µM		> 100 µM		> 100 µM		> 100 µM		> 100 µM
Oc1ccc(Br)cc1CN1CCN(Cc2ccc(Cl)cc2)CC1	46.3 µM	> 100 µM	16.1 µM	51.3 µM	28.6 µM	> 100 µM	44.3 µM	> 100 µM	26.3 µM	> 100 µM	18.4 µM	94.3 µM	17 µM	59.4 µM	20.8 µM	> 100 µM	13.2 µM	40.3 µM	27.6 µM	> 100 µM
COc1ccc(-n2cc(-c3ccc(Cl)cc3)[nH]c2=S)cc1Cl	37.2 µM	> 100 µM	> 100 µM	> 100 µM	23.8 µM	56.6 µM	30.2 µM	> 100 µM	> 100 µM	> 100 µM	34.3 µM	> 100 µM	22.1 µM	82.2 µM	23.7 µM	65.6 µM	82.1 µM	> 100 µM	21.6 µM	46.7 µM
COc1ccc(/C(C#N)=C/c2nc3c(N4CCOCC4)nc(Cl)nc3n2C)cc1OC	< 0.01 µM	1.3 µM	< 0.01 µM	1.62 µM	< 0.01 µM	2.68 µM	< 0.01 µM	1.27 µM	< 0.01 µM	1.26 µM	< 0.0137 µM	1.75 µM	< 0.0133 µM	2.46 µM			< 0.0228 µM	1.27 µM	< 0.01 µM	< 0.01 µM
COC1=CC(=O)c2c(O)c3c(c(O)c2C1=O)CC(C)(O)OC3 (centres undefined)		15 µM		9.08 µM		35.9 µM		7.94 µM		> 35.8 µM		7.29 µM		> 41 µM		37.2 µM		9.9 µM		> 67.6 µM
O=C1CCc2cc([N+](=O)[O-])ccc2O1		> 100 µM		> 100 µM		> 100 µM		> 100 µM				> 100 µM		> 100 µM		> 100 µM		> 100 µM		> 100 µM
CC([C@H]1CCC2C3CCC4C(=O)C(NC=O)=CC[C@]4(C)C3CC[C@@]21C)N(C)C (some centres undefined)	8.07 µM	25.1 µM	1.42 µM	4.26 µM	4.6 µM	20.8 µM	2.29 µM		2.88 µM	14.2 µM	2.43 µM	14.1 µM	2.36 µM	7.07 µM	4.72 µM	19.4 µM	7.7 µM	25.2 µM	3.66 µM	15.5 µM
CN1CCN(c2nc(C3=C(c4c[nH]c5ccccc45)C(=O)NC3=O)c3ccccc3n2)CC1	23.3 µM and 17.9 µM	65 µM and 38 µM	12.9 µM and 19.5 µM	60.2 µM and > 100 µM	9.01 µM and 14.6 µM	27 µM and 38.3 µM	21.4 µM and 21 µM	65 µM and 41.3 µM	4.43 µM and 4.8 µM	65 µM and 24.3 µM	10.1 µM and 16.6 µM	27.9 µM and 40 µM	22.2 µM and 17.3 µM	60.6 µM and 39.4 µM	12.4 µM and 28.3 µM	37.9 µM and 75.3 µM	12.8 µM and 20.2 µM	25.8 µM and 38.8 µM	4.91 µM and 5.65 µM	17.5 µM and 21.6 µM
Nc1nc(Cl)cc2c1ncn2C1OC(CO)C(O)C1O (centres undefined)	> 100 µM	> 100 µM	> 100 µM	> 100 µM	> 100 µM	> 100 µM	> 100 µM	> 100 µM	> 100 µM	> 100 µM	> 100 µM	> 100 µM	52.3 µM	> 100 µM			> 100 µM	> 100 µM	> 100 µM	> 100 µM
